Structures are written as SMILES.

Assay type in all cases: physicochemical
Data set [1] is described as follows: Release rates of pesticide/polymer combinations, one inch squares cut from 1/8 inch sheets (Example 1). The following applies: 10% pesticide. An excerpt: The following controlled release devices were made and tested to obtain their release rates (Table 1). The devices were made as follows. All devices, except for those employing S-113 urethane, were injection molded into a thin sheet about ⅛ inch thick. The device employing S-113 urethane was case, a method typically used for thermoset polymers. All thermoplastics were formulated using sufficient amount of carbon black to carry pesticides. All thermoplastic polymers were formulated with 10 percent pesticide, 3 or 7 percent carbon black to absorb liquid pesticide and 87 to 83 percent by weight of polymer. Specifically, devices made from thermoplastic polymers and deltamethrin and lambdacyhalothrin contained 3 percent of carbon black. The devices made from the remaining pesticides and thermoplastic polymers contained 7 percent of carbon black.
The devices made from S-113 urethane (a thermoset polymer) were made from a polymer mix containing 60% S-113, 40% castor oil, and 5% of TIPA catalyst by weight. The polymer mix comprised 90% of the total weight of the device. The pesticide, deltamethrin, comprised the remaining 10% of the device. No carbon black was used in this device. The polymer/pesticide mixture was cast, using a spin caster into a ⅛ inch thick sheet and heated at about 60° C. for about 40 to 60 minutes to cure the cast sheet.
One inch squares were then cut from the thin sheets that were injection molded or cast, and the squares were tested for release rates as shown in Table 1.

Data set [2] is described as follows: Release rate and longevity of high density polyethylene sheets as a function of thickness and temperature (Example 2). The following applies: 10 wt % pesticide, 10 wt % carrier; for Longevity @ 23° C. / Longevity @ 35° C.: 80 wt % HDPE; for Release Rate @ 23° C.: sheet, 80 wt % high density polyethylene (MA 778000), 60 mil. An excerpt:
Controlled release devices in the form of sheets are made having 10% wt % pesticide, 10 wt % carrier and 80 wt % high density polyethylene (MA 778000).

Data set [3] can be described thus: Release rate and longevity of encapsulated two-part construction (Example 3). The following applies: two-part device about 100 g, inner part 60 wt % pesticide, 40 wt % carrier, outer part HDPE 120 mil. The source says: A device having an inner part surrounded by or encapsulated by an outer part is constructed having an overall mass of about 100 g. The inner part contains 60 wt % pesticide and 40 wt % carrier. The outer part is high density polyethylene of a thickness of 120 mil.

The nature of data set [4]: Release rate and longevity of pellet (Example 4). Conditions: pellet about 100 g, about 150 cm^2, 70 wt % HDPE, 20 wt % pesticide, 10 wt % carrier. An excerpt:
A pellet is made having a mass of about 100 g and a surface area of about 150 cm^2. The polymer is 70 wt % high density polyethylene, with 20 wt % pesticide and 10 wt % carrier. Comparing Table 4 to Table 3, it is evident that the encapsulated two-part construction provides longer life than the pellet.

Where [5] appears, read: polymer EVA 763, injection molded 1/8 inch sheet, 3 or 7% carbon black.
[6] abbreviates: polymer Polyethylene MA78000, injection molded 1/8 inch sheet, 3 or 7% carbon black.
[7] abbreviates: polymer polyurethane 2200, injection molded 1/8 inch sheet, 3 or 7% carbon black.
Setting [8] is: polymer polyurethane 3100, injection molded 1/8 inch sheet, 3 or 7% carbon black.

Consider `CC1(C)[C@H](C(=O)O[C@H](C#N)c2cccc(Oc3ccccc3)c2)[C@@H]1C=C(Br)Br` [Deltamethrin], for which the “Release Rate” value in data set [1] (polymer Alipmtic PS-49-100, injection molded 1/8 inch sheet, 3% carbon black) came out at 7.2 μg/cm2/day; in data set [1] (polymer Aromatic 80A, injection molded 1/8 inch sheet, 3% carbon black), 16.8 μg/cm2/day; in data set [1] (polymer S-113 urethane (thermoset), cast 1/8 inch sheet, no carbon black), 25.2 μg/cm2/day; in data set [1] (polymer pellethane 2102-55D, injection molded 1/8 inch sheet, 3% carbon black) it was 8.0 μg/cm2/day; in data set [1] (polymer pellethane 2102-80A, injection molded 1/8 inch sheet, 3% carbon black), 8.8 μg/cm2/day.
For the compound `CC1(C)C(C=C(Cl)Cl)C1C(=O)OCc1cccc(Oc2ccccc2)c1` (stereo not drawn) [Permethrin], the “Release Rate” value in data set [1] (setting [5]) turned out to be 28.5 μg/cm2/day; in data set [1] (setting [6]) it was 4.0 μg/cm2/day; in data set [1] (setting [7]), 1.3 μg/cm2/day; in data set [1] (setting [8]), 1.4 μg/cm2/day. For the same compound, the “Longevity @ 23° C.” value in data set [2] (sheet thickness 60 mil) is recorded as 8.6 years; in data set [2] (sheet thickness 120 mil), 17 years; in data set [2] (sheet thickness 240 mil), 35 years; in data set [3], 68 years; in data set [4], 30 years. Also, the “Longevity @ 35° C.” value in data set [2] (sheet thickness 60 mil) was 3.2 years; in data set [2] (sheet thickness 120 mil), 6.5 years; in data set [2] (sheet thickness 240 mil), 13 years; in data set [3], 38 years; in data set [4], 14 years. Moreover, the “Release Rate @ 23° C.” value in data set [2] came out at 1.5 μg/cm^2/day; in data set [3], 16 μg/cm^2/day; in data set [4] it was 12 μg/cm^2/day.
Take `CC1(C)[C@H](C(=O)O[C@H](C#N)c2cccc(Oc3ccccc3)c2)[C@@H]1/C=C(\Cl)C(F)(F)F` [Lambdacyhalothrin]: the “Release Rate” value in data set [1] (setting [5]) worked out at 20.6 μg/cm2/day; in data set [1] (setting [6]) it was 5.2 μg/cm2/day; in data set [1] (setting [7]) it was 2.0 μg/cm2/day; in data set [1] (setting [8]) it was 0.7 μg/cm2/day.
Regarding `Oc1ccc(Cl)cc1Cc1cc(Cl)ccc1O` [Dichlorophen], the “Release Rate” value in data set [1] (setting [6]) worked out at 6.2 μg/cm2/day. The “Longevity @ 23° C.” value in data set [2] (sheet thickness 60 mil) amounted to 1.6 years; in data set [2] (sheet thickness 120 mil), 3.3 years; in data set [2] (sheet thickness 240 mil), 6.8 years; in data set [3], 56 years; in data set [4] it was 33 years. The “Longevity @ 35° C.” value in data set [2] (sheet thickness 60 mil) worked out at 1.4 years; in data set [2] (sheet thickness 120 mil) it was 3.0 years; in data set [2] (sheet thickness 240 mil) it was 6.4 years; in data set [3], 28 years; in data set [4], 16 years. Further, the results for the “Release Rate @ 23° C.” value in data set [2], in data set [3] and in data set [4] were 6.2 μg/cm^2/day, 24 μg/cm^2/day and 11 μg/cm^2/day, respectively.
In the case of `Cc1c(F)c(F)c(COC(=O)[C@@H]2[C@H](/C=C(\Cl)C(F)(F)F)C2(C)C)c(F)c1F` (racemic) [Tefluthrin], the “Release Rate” value in data set [1] (setting [5]) turned out to be 40.4 μg/cm2/day; in data set [1] (setting [6]), 27.0 μg/cm2/day; in data set [1] (setting [7]) it was 25.0 μg/cm2/day; in data set [1] (setting [8]), 6.4 μg/cm2/day. In addition, the “Longevity @ 23° C.” value in data set [2] (sheet thickness 60 mil) was 9.1 years; in data set [2] (sheet thickness 120 mil), 18.2 years; in data set [2] (sheet thickness 240 mil), 39 years; in data set [3], 35 years; in data set [4], 33 years. Also, the “Longevity @ 35° C.” value in data set [2] (sheet thickness 60 mil) was determined as 3.1 years; in data set [2] (sheet thickness 120 mil), 5.9 years; in data set [2] (sheet thickness 240 mil), 10.4 years; in data set [3], 18 years; in data set [4] it was 16 years. Moreover, the figures for the “Release Rate @ 23° C.” value in data set [2], in data set [3] and in data set [4] were 1.3 μg/cm^2/day, 31 μg/cm^2/day and 11 μg/cm^2/day, respectively.
As for `CC1(C)C(C=C(Cl)Cl)C1C(=O)OC(C#N)c1cccc(Oc2ccccc2)c1` (stereo not drawn) [Cypermethrin], the “Release Rate” value in data set [1] (setting [5]) is recorded as 27.3 μg/cm2/day; in data set [1] (setting [6]), 4.6 μg/cm2/day; in data set [1] (setting [7]), 0.7 μg/cm2/day; in data set [1] (setting [8]), 0.4 μg/cm2/day.
As to `c1ccc(-c2ccccc2)cc1` [Biphenyl], the “Longevity @ 23° C.” value in data set [2] (sheet thickness 60 mil) is listed as 2.5 years; in data set [2] (sheet thickness 120 mil) it was 5.1 years; in data set [2] (sheet thickness 240 mil), 11.2 years; in data set [3] it was 31 years; in data set [4], 22 years. Further, the “Longevity @ 35° C.” value in data set [2] (sheet thickness 60 mil) is reported as 2.1 years; in data set [2] (sheet thickness 120 mil), 4.4 years; in data set [2] (sheet thickness 240 mil) it was 9.1 years; in data set [3], 23 years; in data set [4] it was 11 years. The “Release Rate @ 23° C.” value in data set [2] is 3.5 μg/cm^2/day; in data set [3], 35 μg/cm^2/day; in data set [4] it was 16 μg/cm^2/day.
`CCOP(=S)(OCC)Oc1cc(C)nc(C(C)C)n1` [Diazinon]: the “Longevity @ 23° C.” value was 1.1 years in data set [2] (sheet thickness 60 mil); 2.3 years in data set [2] (sheet thickness 120 mil); 4.8 years in data set [2] (sheet thickness 240 mil); 39 years in data set [3]; 8.1 years in data set [4]. In addition, the “Longevity @ 35° C.” value in data set [2] (sheet thickness 60 mil) worked out at 0.6 years; in data set [2] (sheet thickness 120 mil), 1.3 years; in data set [2] (sheet thickness 240 mil) it was 2.7 years; in data set [3], 24 years; in data set [4], 5.1 years. The “Release Rate @ 23° C.” value is given as 11.7 μg/cm^2/day in data set [2], 28 μg/cm^2/day in data set [3] and 45 μg/cm^2/day in data set [4].

(Values after patent US6852328B1, “Method and device for protection of wooden objects proximate soil from pest invasion” (priority 1989, dated 2005).)
